# Assays:
# CXCL-1 = assay: Muscle damage-protecting effect using myotube cell: CXCL-1 gene expression by quantitative real time PCR after H2O2 treatment; format: cell-based, mouse; conditions: C2C12 myotube cell, 10 μg/ml for 24 hours, then 1 mM H2O2 for 2 hours, relative to GAPDH, compared to hydrogen peroxide group, FIG. 4
# Method: (§1) In this evaluation system, the C2C12 myoblast cell line derived from a mouse was used. The cell line is preserved in RIKEN BIORESOURCE CENTER, Japan, and the cell line can be shared. The cell is differentiated from a mononuclear myoblast cell into a maltinuclear myotube cell by differentiation induction, to thereby have a muscle fiber-like form. The cell was seeded in a collagen I-coated 35-mm dish and cultured in DMEM (11965-092, manufactured by GIBCO)+10% FBS (hereinafter, may be referred to as a growth medium) at 37° C. under 5% CO2 until the culture had 90% confluence. […] The concentration of the purified total RNA was determined based on the measurement results of the absorbance (260 nm, 280 nm). […] A quantitative real time PCR was performed by using the obtained cDNA. In the quantitative real time PCR, qPCR super mix-UDG with ROX was used as a reaction reagent, as primers for IL-6 and CXCL-1, Mm00446190 (manufactured by AB Corporation) and Mm00433859 (manufactured by AB Corporation) were used, respectively, and as a primer for […] (hereinafter, may be referred to as GAPDH) which was used as an internal standard, Mm99999915 (manufactured by AB Corporation) was used. […]
# IL-6 = assay: Muscle damage-protecting effect using myotube cell: IL-6 gene expression by quantitative real time PCR after H2O2 treatment; format: cell-based, mouse; conditions: C2C12 myotube cell, 10 μg/ml for 24 hours, then 1 mM H2O2 for 2 hours, relative to GAPDH, compared to hydrogen peroxide group, FIGS. 3 and 4
# Method: as §1
smiles,measurement,setting,value
"CCCCCCCCCCCCCCC[C@@H](O)[C@@H](N)CO (single isomer, unassigned) [sphinganine]",gene expression of CXCL-1,CXCL-1,effect of inhibiting
same,gene expression of IL-6,IL-6,effect of inhibiting

# Reference: US20100047374A1, “COMPOSITION FOR PROTECTING MUSCLE DAMAGE” (priority 2007, published 2010)
